Data on one molecule can be found in US7271158B2, “Treatment of rumen acidosis with α-amylase inhibitors” (Pfizer Inc., priority 2000, dated 2007).

Assay [1] deals with bacterial glucosidase activity from bovine rumen fluid cell suspension. Put plainly: Rumen fluid glucosidase assay. Type of assay: biochemical, bovine rumen bacteria. As to conditions: rumen fluid glucosidase screen, maltose substrate. As for the experimental part:
Rumen Fluid Glucosidase Assay Protocol This assay is used to determine IC50 values for inhibitors of bacterial glucosidase activity from bovine rumen fluid cell suspension (RFCS) using a colorimetric assay. The assay measures conversion of maltose into glucose. Rumen fluid cells are incubated with maltose in the presence of inhibitors, and the amount of glucose produced is assessed using a red colourimetric endpoint. The higher the level of inhibition the lower the glucose produced and the less red colour produced. The plates are read at 450 nm. Main reaction: • Maltose+glucosidase→glucose Glucose assay • Glucose+ATP→[…] and ADP (Hexokinase and Mg^2+) • […] and NADP→6-phosphogluconate (6-PG) and NADPH • NADPH+phenazine methosulfate ([…] (iodonitrotetrazolium chloride)→[…] is deep red coloured. […] The rumen fluid was collected into pre-warmed vacuum flasks. It was then filtered through a double layer of absorbent gauze (Absorbent gauze BP, GAUZ 4 from Robert Bailey plc, Stockport) to remove hay and feed particles. The liquid was centrifuged at a relative centrifugal force of 650 for 15 minutes to remove food particles and protozoa. The supernatant was decanted into fresh tubes and centrifuged at a relative centrifugal force of 23,300 for 60 minutes. The supernatant and the loose top layer of the pellet were discarded. The pellet was resuspended in PBS at 1:8 of original volume i.e. 50 ml of PBS for the pellet from 400 ml of rumen fluid, and frozen at -20° C. When required for use the cells were thawed by standing the tube in cold water, and then diluted to […] of cells/well (45 μl/ml). Test compounds or controls were dispensed into the 96-well assay plate at 2 μl/well, followed by 50 μl per well of 10 mM maltose and 50 μl/well of rumen fluid cell suspension. The plate was incubated at 37° C. for 1 hour. Sigma glucose detection kit […] was reconstituted by addition of 17 ml of Millipore water and 4 ml of colour reagent to each vial. 100 μl of this solution was added per well and the plate returned to the 37° C. incubator for 45 minutes. The plate was then read at 450 nm. Active compounds cause a reduction in the optical density readings when compared to the no-inhibitor control wells.

Assay [2] has as its target rumen fluid supernatant amylases. Put plainly: Rumen bacterial amylase assay, protocol 2 (amylose azure). The conditions noted are these: read-out: Average IC50, rumen fluid amylase screen.
In assay [3] the test system is lactating cows in which chronic acidosis had been induced. As to the kind of experiment: Efficacy of acarbose in lactating dairy cattle (induced chronic acidosis). It is filed as in vivo, Holstein/Friesian cows. The source says:
Efficacy of Acarbose in Lactating Dairy Cattle The study measured the effect of acarbose on rumen pH, milk yield and milk composition in lactating cows in which chronic acidosis had been induced by offering a highly fermentable diet. The study included measurement of rate of adaptation to the introduction and removal of acarbose. Experimental animals were six lactating multiparous Holstein/Friesian cows between 5 and 11 years of age and 500-750 kg, with permanent rumen cannulas. The animals started the experiment in early lactation, but not before peak lactation, to allow greater experimental sensitivity. The principal measurements in this study were pH in the ventral sac of the rumen, milk yield and milk composition. DESIGN: Animals enrolled into the study received test article for 21 consecutive days from the start time points described below. [table] Masking/Bias-Reducing Methods: Six lactating multiparous Holstein/Friesian cows were enrolled on to the study on Day-1. Animals were paired based on their calving date (cows with similar dates paired together). Within each pair, one animal received […] and the other […]. The treatment was assigned at random. […] The mean intake over the last 5 days of the preliminary period was calculated and this mean amount was offered to each animal throughout the trial. […] Fresh weight of TMR offered and refused was recorded daily for each animal. During non-measurement weeks ([…] period and adaptation weeks 1 and 2 in each experimental period), dry matter (DM) of main forage components (grass and maize […] determined approximately weekly (or more frequently if it appears necessary from visual assessment of the silage). For measurement weeks (i.e. week 3 in each experimental period), the DM of the TMR were measured daily for the last 5 days while a bulk of each of the individual TMR components (grass silage, maize silage, concentrate mix, ground wheat) were prepared from the same 5 days for subsequent diet analysis (i.e. one sample of each main feed per period). […]

The IC50 is the concentration at which inhibition is half-maximal. For `CC1OC(OC2C(CO)OC(OC3C(CO)OC(O)C(O)C3O)C(O)C2O)C(O)C(O)C1NC1C=C(CO)C(O)C(O)C1O` (centres unmarked) [Acarbose, acarbose], the IC50 in assay [1] worked out at 1080 nM; in assay [2], 2390 nM. The “proportion of fat in the milk” value in assay [3] (treated animals, acarbose 15 g per day (control 32.8 g/L)) amounted to 46.1 g/L. For the same molecule, the milk fat in assay [3] (treated animals, acarbose 15 g per day (control average 1033 grams per day)) was determined as 1281 grams per day. Also, in assay [3] (treatment periods, acarbose 15 g per day in feed supplement (control periods 4.3 hours)), the “average time below pH 5.5 (rumen)” value came to 3.4 hours.
